This passage reports EC50 results from patent US20260001914A1, “MACROCYCLIC PEPTIDES TARGETING KRAS” (Merck Sharp & Dohme LLC, priority 2022, published 2026).

*1 amine or outer side, *2 acyl side, *3 side chain or, on linkers, in order; H or OH if unused. Where a SMILES comes first, the peptide text is derived from it. Bridges are numbered along the chain shown (N, C = ends). [ ]: non-standard residue; d: D form. Phe(4-guanidino) = N=C(N)Nc1ccc(C[C@H](N)C(=O)O)cc1; Ala(pyrimidin-5-yl) = N[C@@H](Cc1cncnc1)C(=O)O; Gly(N-(CH2)3-guanidino) = N=C(N)NCCCNCC(=O)O; NMe3Pal(6-Me) = CN[C@@H](Cc1ccc(C)nc1)C(=O)O; NMePhe(4-Me) = CN[C@@H](Cc1ccc(C)cc1)C(=O)O; Phe(2,6-F2) = N[C@@H](Cc1c(F)cccc1F)C(=O)O; X37 = O=C([C@H](Cc1cnc(F)cc1F)N[*:1])[*:2]; X7 = C[C@H](N[*:1])C12CC(C(=O)[*:2])(C1)C2; 3Pal(6-OMe) = COc1ccc(C[C@H](N)C(=O)O)cn1; X5 = O=C([C@H](Cc1c(F)ccnc1F)N[*:1])[*:2]; Leu(4,5-dehydro) = C=C(C)C[C@H](N)C(=O)O; NMeNva(5,5-F2) = CN[C@@H](CCC(F)F)C(=O)O; X11 = CC(C)(F)CC[C@H](N[*:1])C(=O)[*:2]; NMeAha = CN[C@@H](CCN=[N+]=[N-])C(=O)O; Phe(3-F) = N[C@@H](Cc1cccc(F)c1)C(=O)O; X2 = O=C([C@H](Cc1ccccc1F)O[*:1])[*:2]; Phe(2-F) = N[C@@H](Cc1ccccc1F)C(=O)O; NMe3Pal = CN[C@@H](Cc1cccnc1)C(=O)O; X1 = O=C(C12CC(CN[*:1])(C1)C2)[*:2]; NMeAad = CN[C@@H](CCCC(=O)O)C(=O)O; NMeOrn(Me) = CNCCC[C@H](NC)C(=O)O; Ala(cPr) = N[C@@H](CC1CC1)C(=O)O; NMeF = CN[C@@H](Cc1ccccc1)C(=O)O; PhLac = O=C(O)[C@@H](O)Cc1ccccc1; 3Pal = N[C@@H](Cc1cccnc1)C(=O)O; Ahp(2) = CCCCC[C@H](N)C(=O)O; Cba = N[C@@H](CC1CCC1)C(=O)O; hLeu = CC(C)CC[C@H](N)C(=O)O; αMeC = C[C@](N)(CS)C(=O)O; NMeA = CN[C@@H](C)C(=O)O; Nle = CCCC[C@H](N)C(=O)O

Sequence of phosphorylation levels of ERK1/2 in AsPC-1 (homozygous KRAS-G12D) cells (P01116 1-186 G12D): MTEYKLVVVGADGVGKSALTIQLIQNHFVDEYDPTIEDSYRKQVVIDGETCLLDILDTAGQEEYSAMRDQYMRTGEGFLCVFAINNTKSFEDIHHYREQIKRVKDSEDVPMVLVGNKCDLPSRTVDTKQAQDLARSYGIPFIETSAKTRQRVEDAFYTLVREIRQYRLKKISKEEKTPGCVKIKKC

This assay addresses phosphorylation levels of ERK1/2 in AsPC-1 (homozygous KRAS-G12D) cells (Homo sapiens, UniProt P01116, G12D). In words: Cellular phospho-ERK assay in AsPC-1 cells (Alpha Screen), assay medium without fetal bovine serum.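 Note: signal taken as phospho-ERK over total ERK per well, both detected in one multiplex bead assay, EC50 from four-parameter logistic fit of dose-response curves.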 The class given is cell-based. Particulars: phospho-ERK AlphaScreen, 18 h.
`CC(C)CC[C@@H]1NC(=O)[C@H](Cc2ccccc2F)NC(=O)[C@H](CC2CC2)NC(=O)[C@H](Cc2cncnc2)NC(=O)[C@H](CCC(F)F)N(C)C(=O)[C@H](Cc2ccccc2)OC(=O)C23CC(CNC(=O)[C@H](Cc4ccccc4)N(C)C1=O)(C2)C3` [compound 217, cyclo(FLac-NMeNvaF2-PyrimAla-cPrA-Phe2F-hL-NMeF-amBCP)] (cyclo([Ala(cPr)][Phe(2-F)][hLeu][NMeF][X1][PhLac][NMeNva(5,5-F2)][Ala(pyrimidin-5-yl)])) gave an EC50 of 1.77 µM.
As to `CCCCC[C@@H]1NC(=O)[C@H](Cc2ccc(OC)cc2)NC(=O)[C@H](CC2CCC2)NC(=O)[C@H](Cc2cccnc2)NC(=O)[C@H](CCCNC)N(C)C(=O)[C@H](Cc2ccccc2)NC(=O)CSC[C@@](C)(C(N)=O)NC(=O)[C@H](Cc2ccc(C)nc2)N(C)C1=O` [compound 393, cyclo(F-NMeOrnMe-3Pal-cBuA-TyrOMe-Ahp-NMe3Pal4Me-aMeCl-ClAc)] ({CH2CO}-F[NMeOrn(Me)][3Pal][Cba]Y(Me)[Ahp(2)][NMe3Pal(6-Me)][αMeC]-NH2; thioether N-8), the EC50 was > 50.8 µM.
Then `CON=C1C[C@@H](Cc2ccccc2)C(=O)N(C)[C@@H](C)C(=O)N[C@@H](Cc2cncnc2)C(=O)N[C@@H](CC2CC2)C(=O)N[C@@H](Cc2ccccc2F)C(=O)N[C@@H](CCC(C)(F)F)C(=O)N(C)[C@@H](Cc2ccccc2)C(=O)NCC23CC1(C2)C3` (single isomer, unassigned) [compound 177, cyclo(CPhe-NMeA-PyrimAla-cPrA-Phe2F-Nle3F2-NMeF-MeOximamBCP)], with 3.4 µM; and `C[C@H]1C(=O)N[C@@H](Cc2cncnc2)C(=O)N[C@@H](CC2CC2)C(=O)N[C@@H](Cc2ccccc2F)C(=O)N[C@@H](CCC(C)(C)F)C(=O)N(C)[C@@H](Cc2ccccc2)C(=O)NCC23CC(C2)(C3)C(=O)O[C@@H](Cc2ccccc2)C(=O)N1C` [compound 277, cyclo(FLac-NMeA-PyrimAla-cPrA-Phe2F-hL3F-NMeF-amBCP)] (cyclo([Ala(cPr)][Phe(2-F)][X11][NMeF][X1][PhLac][NMeA][Ala(pyrimidin-5-yl)])), with 0.793 µM.
For `C=C(C)C[C@@H]1NC(=O)[C@H](CC2CC2)NC(=O)[C@H](Cc2cncnc2)NC(=O)[C@H](C)N(C)C(=O)[C@H](Cc2ccccc2)OC(=O)C23CC(CNC(=O)[C@H](Cc4ccccc4)N(C)C(=O)[C@H](CCC(C)C)NC1=O)(C2)C3` [compound 287, cyclo(FLac-NMeA-PyrimAla-cPrA-deHLeu-hL-NMeF-amBCP)] (cyclo([Ala(cPr)][Leu(4,5-dehydro)][hLeu][NMeF][X1][PhLac][NMeA][Ala(pyrimidin-5-yl)])) the value was 17.1 µM.
For `CCCC[C@@H]1NC(=O)[C@H](Cc2cccnc2)NC(=O)[C@H](CCCC(=O)N(C)C)N(C)C(=O)[C@H](Cc2ccccc2)OC(=O)C23CC(CNC(=O)[C@H](Cc4cccnc4)N(C)C(=O)[C@H](CCCC)NC(=O)[C@H](Cc4ccccc4F)NC1=O)(C2)C3` [compound 408, cyclo(FLac-hQdm-3Pal-Nle-Phe2F-Nle-NMe3Pal-amBCP)] (cyclo([3Pal][Nle][Phe(2-F)][Nle][NMe3Pal][X1][PhLac][NMeAad](NMe2))) the value was > 50.8 µM; for `CCCC[C@@H]1NC(=O)[C@H](Cc2cccnc2)NC(=O)[C@H](C)N(C)C(=O)[C@H](Cc2cccnc2)NC(=O)C23CC(CNC(=O)[C@H](Cc4cccnc4)N(C)C(=O)[C@H](CCCC)NC(=O)[C@H](Cc4ccccc4F)NC1=O)(C2)C3` [compound 163, cyclo(3Pal-NMeA-3Pal-Nle-Phe2F-Nle-NMe3Pal-amBCP)] (cyclo([3Pal][NMeA][3Pal][Nle][Phe(2-F)][Nle][NMe3Pal][X1])), > 50.8 µM.
`CCCC[C@@H]1NC(=O)[C@H](Cc2cncnc2)NC(=O)[C@H](C)N(C)C(=O)[C@H](Cc2ccccc2)OC(=O)C23CC(C2)(C3)[C@H](C)NC(=O)[C@H](Cc2cccnc2)N(C)C(=O)[C@H](CCCC)NC(=O)[C@H](Cc2ccccc2F)NC1=O` [compound 121, cyclo(FLac-NMeA-PyrimAla-Nle-Phe2F-Nle-NMe3Pal-SMeamBCP)] (cyclo([NMe3Pal][X7][PhLac][NMeA][Ala(pyrimidin-5-yl)][Nle][Phe(2-F)][Nle])): it took 23.4 µM to reach a half-maximal effect (EC50).
For `CCCC[C@@H]1NC(=O)[C@H](Cc2cccnc2)NC(=O)[C@H](CCN=[N+]=[N-])N(C)C(=O)[C@H](Cc2ccccc2)OC(=O)C23CC(CNC(=O)[C@H](Cc4cccnc4)N(C)C(=O)[C@H](CCCC)NC(=O)[C@H](Cc4ccccc4F)OC1=O)(C2)C3` [compound 238, cyclo(FLac-NMeDabN3-3Pal-Nle-F2FLac-Nle-NMe3Pal-amBCP)] (cyclo([3Pal][Nle][X2][Nle][NMe3Pal][X1][PhLac][NMeAha])) the value was 3.48 µM; for `CC(C)CC[C@@H]1NC(=O)[C@H](Cc2c(F)ccnc2F)NC(=O)[C@H](CC2CC2)NC(=O)[C@H](Cc2cncnc2)NC(=O)[C@H](C)N(C)C(=O)[C@H](Cc2ccccc2)OC(=O)C23CC(CNC(=O)[C@H](Cc4ccccc4)N(C)C1=O)(C2)C3` [compound 295, cyclo(FLac-NMeA-PyrimAla-cPrA-3Pal26F2-hL-NMeF-amBCP)] (cyclo([Ala(cPr)][X5][hLeu][NMeF][X1][PhLac][NMeA][Ala(pyrimidin-5-yl)])), 29.6 µM.
Molecule `CC(C)CC[C@@H]1NC(=O)[C@H](Cc2cccc(F)c2)NC(=O)[C@H](CC2CCC2)NC(=O)[C@H](Cc2cncnc2)NC(=O)[C@H](C)N(C)C(=O)[C@H](Cc2ccccc2)OC(=O)C23CC(CNC(=O)[C@H](Cc4ccccc4)N(C)C1=O)(C2)C3` [compound 303, cyclo(FLac-NMeA-PyrimAla-cBuA-Phe3F-hL-NMeF-amBCP)] (cyclo([Cba][Phe(3-F)][hLeu][NMeF][X1][PhLac][NMeA][Ala(pyrimidin-5-yl)])) gave a 50% effective concentration (EC50) of 0.806 µM.
For `CCCC[C@@H]1NC(=O)[C@H](Cc2cncnc2)NC(=O)[C@H](C)N(C)C(=O)[C@H](Cc2ccccc2)OC(=O)C23CC(CNC(=O)[C@H](Cc4ccc(C)cc4)N(C)C(=O)[C@H](CCCC)NC(=O)[C@H](Cc4ccccc4F)NC1=O)(C2)C3` [compound 171, cyclo(FLac-NMeA-PyrimAla-Nle-Phe2F-Nle-NMePhe4Me-amBCP)] (cyclo([NMeA][Ala(pyrimidin-5-yl)][Nle][Phe(2-F)][Nle][NMePhe(4-Me)][X1][PhLac])) the value was 0.223 µM; for `CCCC[C@@H]1NC(=O)[C@H](Cc2cccnc2)NC(=O)[C@H](CCN=[N+]=[N-])N(C)C(=O)[C@H](Cc2ccccc2)OC(=O)C23CC(CNC(=O)[C@H](Cc4cccnc4)N(C)C(=O)[C@H](CCCC)NC(=O)[C@H](Cc4ccccc4F)NC1=O)(C2)C3` [compound 249, cyclo(FLac-NMeDabN3-3Pal-Nle-Phe2F-Nle-NMe3Pal-amBCP)] (cyclo([3Pal][Nle][Phe(2-F)][Nle][NMe3Pal][X1][PhLac][NMeAha])), 3.95 µM.
For `CCCCC[C@@H]1NC(=O)[C@H](Cc2ccc(OC)cc2)NC(=O)[C@H](CC2CCC2)NC(=O)[C@H](Cc2ccc(NC(=N)N)cc2)NC(=O)CN(CCCNC(=N)N)C(=O)[C@H](Cc2ccccc2)NC(=O)CSC[C@@](C)(C(N)=O)NC(=O)[C@H](Cc2ccccc2)N(C)C1=O` [compound 361, cyclo(F-NGnG-Phe4Gn-cBuA-TyrOMe-Ahp-NMeF-aMeCl-ClAc)] ({CH2CO}-F[Gly(N-(CH2)3-guanidino)][Phe(4-guanidino)][Cba]Y(Me)[Ahp(2)][NMeF][αMeC]-NH2; thioether N-8), the EC50 turned out to be 39.7 µM.
The molecule `CC(C)CC[C@@H]1NC(=O)[C@H](Cc2cnc(F)cc2F)NC(=O)[C@H](CC2CC2)NC(=O)[C@H](Cc2cncnc2)NC(=O)[C@H](C)N(C)C(=O)[C@H](Cc2ccccc2)OC(=O)C23CC(CNC(=O)[C@H](Cc4ccccc4)N(C)C1=O)(C2)C3` [compound 294, cyclo(FLac-NMeA-PyrimAla-cPrA-3Pal46F2-hL-NMeF-amBCP)] (cyclo([Ala(cPr)][X37][hLeu][NMeF][X1][PhLac][NMeA][Ala(pyrimidin-5-yl)])) registered an EC50 of 4.66 µM.
Then `CC(C)CC[C@@H]1NC(=O)[C@H](Cc2c(F)cccc2F)NC(=O)[C@H](CC2CCC2)NC(=O)[C@H](Cc2cncnc2)NC(=O)[C@H](C)N(C)C(=O)[C@H](Cc2ccccc2)OC(=O)C23CC(CNC(=O)[C@H](Cc4ccccc4)N(C)C1=O)(C2)C3` [compound 226, cyclo(FLac-NMeA-PyrimAla-cBuA-Phe26F2-hL-NMeF-amBCP)] (cyclo([Cba][Phe(2,6-F2)][hLeu][NMeF][X1][PhLac][NMeA][Ala(pyrimidin-5-yl)])), with 0.355 µM; and `CCCC[C@@H]1NC(=O)[C@H](Cc2cccnc2)NC(=O)[C@H](C)N(C)C(=O)[C@H](Cc2ccc(OC)cc2)NC(=O)C23CC(CNC(=O)[C@H](Cc4cccnc4)N(C)C(=O)[C@H](CCCC)NC(=O)[C@H](Cc4ccccc4F)NC1=O)(C2)C3` [compound 169, cyclo(TyrOMe-NMeA-3Pal-Nle-Phe2F-Nle-NMe3Pal-amBCP)] (cyclo([3Pal][Nle][Phe(2-F)][Nle][NMe3Pal][X1]Y(Me)[NMeA])), with > 50.8 µM.
For `CCCCC[C@@H]1NC(=O)[C@H](Cc2ccc(OC)cc2)NC(=O)[C@H](CC2CCC2)NC(=O)[C@H](Cc2ccc(OC)nc2)NC(=O)[C@H](CCCNC(=N)N)NC(=O)[C@H](Cc2ccccc2)NC(=O)CSC[C@@](C)(C(N)=O)NC(=O)[C@H](Cc2ccccc2)N(C)C1=O` [compound 365, cyclo(F-R-40Me3Pal-cBuA-TyrOMe-Ahp-NMeF-aMeCl-ClAc)] ({CH2CO}-FR[3Pal(6-OMe)][Cba]Y(Me)[Ahp(2)][NMeF][αMeC]-NH2; thioether N-8) the value was > 50.8 µM; for `CCCCC[C@@H]1NC(=O)[C@H](Cc2ccc(OC)cc2)NC(=O)[C@H](CC2CCC2)NC(=O)[C@H](Cc2cncnc2)NC(=O)[C@H](CCCNC(=N)N)NC(=O)[C@H](Cc2ccccc2)NC(=O)CSC[C@@](C)(C(N)=O)NC(=O)[C@H](Cc2ccccc2)N(C)C1=O` [compound 367, cyclo(F-R-PyrimAla-cBuA-TyrOMe-Ahp-NMeF-aMeCl-ClAc)] ({CH2CO}-FR[Ala(pyrimidin-5-yl)][Cba]Y(Me)[Ahp(2)][NMeF][αMeC]-NH2; thioether N-8), > 50.8 µM.

A word on the EC50: it is the concentration giving half of the maximal effect.
